According to US7026339B2, “Inhibitors of HCV NS5B polymerase” (priority 2003, dated 2006):

system: HuH-7 replicon cells 5–15 and 9–13 (HCV replication); assay: Inhibition of viral replication in HuH-7 replicon cells (HCV RNA / GAPDH RNA by multiplex RT-PCR); assay type: cell-based; conditions: Hepatitis C virus, 72 h; inhibiting 50% of replication; HuH-7 replicon cells, 3 days; read-out: IC50
In short: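 HCV and GAPDH RNA were measured by multiplex TaqMan RT-PCR (HCV 5′ untranslated region) after 3-day compound treatment at 37 °C, final 100 μM–1 μM in 1% DMSO. Cells were plated 24 h beforehand at 7×10^3/well. Read-out: HCV-to-GAPDH ratio expressed as percent control versus untreated cells.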

| SMILES | IC50 |
| --- | --- |
| N#Cc1ccc(S(=O)(=O)Oc2ccccc2/C=N/NC(=O)Cc2ccccc2)cc1 [Compound 115, 2-{(E)-[2-(2-phenylacetyl)hydrazono]methyl}phenyl 4-cyanobenzenesulfonate] | 5 to 50 µM |
| O=C(Cc1ccccc1)N/N=C/c1ccccc1OS(=O)(=O)c1cccc(Cl)c1 [Compound 116, 2-{(E)-[2-(2-phenylacetyl)hydrazono]methyl}phenyl 3-chlorobenzenesulfonate] | > 50 µM |
| O=C(Cc1ccccc1)N/N=C/c1ccccc1OS(=O)(=O)c1ccc(Cl)cc1 [Compound 117, 2-{(E)-[2-(2-phenylacetyl)hydrazono]methyl}phenyl 4-chlorobenzenesulfonate] | < 5 µM |
| O=C(Cc1ccccc1)N/N=C/c1ccccc1OS(=O)(=O)c1ccc(F)c(F)c1 [Compound 118, 2-{(E)-[2-(2-phenylacetyl)hydrazono]methyl}phenyl3,4-difluorobenzenesulfonate] | 5 to 50 µM |
| O=C(Cc1ccccc1)N/N=C/c1ccccc1OS(=O)(=O)c1ccc2ccccc2c1 [Compound 119, 2-{(E)-[2-(2-phenylacetyl)hydrazono]methyl}phenylnaphthalene-2-sulfonate] | < 5 µM |
| O=C(Cc1ccccc1)N/N=C/c1ccccc1OS(=O)(=O)c1ccc(F)c(Cl)c1 [Compound 120, 2-{(E)-[2-(2-phenylacetyl)hydrazono]methyl}phenyl 3-chloro-4-fluorobenzenesulfonate] | 5 to 50 µM |
| CC(C)(C)c1ccc(S(=O)(=O)Oc2ccccc2/C=N/NC(=O)Cc2ccccc2)cc1 [Compound 121, 2-{(E)-[2-(2-phenylacetyl)hydrazono]methyl}phenyl 4-tert-butylbenzenesulfonate] | < 5 µM |
| O=C(Cc1ccccc1)N/N=C/c1ccccc1OS(=O)(=O)c1cccc(C(F)(F)F)c1 [Compound 122, 2-{(E)-[2-(2-phenylacetyl)hydrazono]methyl}phenyl 3-(trifluoromethyl)benzenesulfonate] | 5 to 50 µM |
| O=C(Cc1ccccc1)N/N=C/c1ccccc1OS(=O)(=O)c1ccc(C(F)(F)F)cc1 [Compound 123, 2-{(E)-[2-(2-phenylacetyl)hydrazono]methyl}phenyl 4-(trifluoromethyl)benzenesulfonate] | < 5 µM |
| O=C(Cc1ccccc1)N/N=C/c1ccccc1OS(=O)(=O)c1ccc(Cl)cc1Cl [Compound 124, 2-{(E)-[2-(2-phenylacetyl)hydrazono]methyl}phenyl2,4-dichlorobenzenesulfonate] | < 5 µM |
| O=C(Cc1ccccc1)N/N=C/c1ccccc1OS(=O)(=O)c1ccc(Cl)c(Cl)c1 [Compound 125, 2-{(E)-[2-(2-phenylacetyl)hydrazono]methyl}phenyl3,4-dichlorobenzenesulfonate] | < 5 µM |
| O=C(Cc1ccccc1)N/N=C/c1ccccc1OS(=O)(=O)c1cc(Cl)cc(Cl)c1 [Compound 126, 2-{(E)-[2-(2-phenylacetyl)hydrazono]methyl}phenyl3,5-dichlorobenzenesulfonate] | 5 to 50 µM |
| O=C(Cc1ccccc1)N/N=C/c1ccccc1OS(=O)(=O)c1cccc(Br)c1 [Compound 127, 2-{(E)-[2-(2-phenylacetyl)hydrazono]methyl}phenyl 3-bromobenzenesulfonate] | 5 to 50 µM |
| O=C(Cc1ccccc1)N/N=C/c1ccccc1OS(=O)(=O)c1ccc(Br)cc1 [Compound 128, 2-{(E)-[2-(2-phenylacetyl)hydrazono]methyl}phenyl 4-bromobenzenesulfonate] | < 5 µM |
| O=C(Cc1ccccc1)N/N=C/c1ccccc1OS(=O)(=O)c1ccc(F)cc1 [Compound 129, 2-{(E)-[2-(2-phenylacetyl)hydrazono]methyl}phenyl 4-fluorobenzenesulfonate] | 5 to 50 µM |
| Cc1ccc(C)c(S(=O)(=O)Oc2ccccc2/C=N/NC(=O)Cc2ccccc2)c1 [Compound 130, 2-{(E)-[2-(2-phenylacetyl)hydrazono]methyl}phenyl2,5-dimethylbenzenesulfonate] | > 50 µM |
| COc1ccc(S(=O)(=O)Oc2ccccc2/C=N/NC(=O)Cc2ccccc2)cc1 [Compound 131, 2-{(E)-[2-(2-phenylacetyl)hydrazono]methyl}phenyl 4-methoxybenzenesulfonate] | < 5 µM |
| O=C(Cc1ccccc1)N/N=C/c1ccccc1OS(=O)(=O)c1ccccc1Cl [Compound 132, 2-{(E)-[2-(2-phenylacetyl)hydrazono]methyl}phenyl 2-chlorobenzenesulfonate] | > 50 µM |
| O=C(Cc1ccccc1)N/N=C/c1ccccc1OS(=O)(=O)c1ccc(F)cc1F [Compound 133, 2-{(E)-[2-(2-phenylacetyl)hydrazono]methyl}phenyl2,4-difluorobenzenesulfonate] | > 50 µM |
| CCCc1ccc(S(=O)(=O)Oc2ccccc2/C=N/NC(=O)Cc2ccccc2)cc1 [Compound 134, 2-{(E)-[2-(2-phenylacetyl)hydrazono]methyl}phenyl 4-propylbenzenesulfonate] | < 5 µM |
| CC(C)c1ccc(S(=O)(=O)Oc2ccccc2/C=N/NC(=O)Cc2ccccc2)cc1 [Compound 135, 2-{(E)-[2-(2-phenylacetyl)hydrazono]methyl}phenyl 4-isopropylbenzenesulfonate] | < 5 µM |
| O=C(Cc1ccccc1)N/N=C/c1ccccc1OS(=O)(=O)c1cccc2ccccc12 [Compound 136, 2-{(E)-[2-(2-phenylacetyl)hydrazono]methyl}phenylnaphthalene-1-sulfonate] | > 50 µM |
| O=C(Cc1ccccc1)N/N=C/c1ccccc1OS(=O)(=O)c1ccc(F)cc1Cl [Compound 137, 2-{(E)-[2-(2-phenylacetyl)hydrazono]methyl}phenyl 2-chloro-4-fluorobenzenesulfonate] | 5 to 50 µM |
| COc1ccc(OC)c(S(=O)(=O)Oc2ccccc2/C=N/NC(=O)Cc2ccccc2)c1 [Compound 138, 2-{(E)-[2-(2-phenylacetyl)hydrazono]methyl}phenyl2,5-dimethoxybenzenesulfonate] | > 50 µM |
| O=C(Cc1ccccc1)N/N=C/c1ccccc1OS(=O)(=O)c1cc(Cl)ccc1Cl [Compound 139, 2-{(E)-[2-(2-phenylacetyl)hydrazono]methyl}phenyl2,5-dichlorobenzenesulfonate] | > 50 µM |
| O=C(Cc1ccccc1)N/N=C/c1ccccc1OS(=O)(=O)c1ccccc1Br [Compound 140, 2-{(E)-[2-(2-phenylacetyl)hydrazono]methyl}phenyl 2-bromobenzenesulfonate] | > 50 µM |
| O=C(Cc1ccccc1)N/N=C/c1ccccc1OS(=O)(=O)c1ccccc1OC(F)(F)F [Compound 141, 2-{(E)-[2-(2-phenylacetyl)hydrazono]methyl}phenyl 2-(trifluoromethoxy)benzenesulfonate] | > 50 µM |
| O=C(Cc1ccccc1)N/N=C/c1ccccc1OS(=O)(=O)c1ccc(OC(F)(F)F)cc1 [Compound 142, 2-{(E)-[2-(2-phenylacetyl)hydrazono]methyl}phenyl 4-(trifluoromethoxy)benzenesulfonate] | < 5 µM |
| COc1cccc(S(=O)(=O)Oc2ccccc2/C=N/NC(=O)Cc2ccccc2)c1 [Compound 143, 2-{(E)-[2-(2-phenylacetyl)hydrazono]methyl}phenyl 3-methoxybenzenesulfonate] | 5 to 50 µM |
| O=C(Cc1ccccc1)N/N=C/c1ccccc1OS(=O)(=O)c1ccc(-c2ccccc2)cc1 [Compound 144, 2-{(E)-[2-(2-phenylacetyl)hydrazono]methyl}phenyl1,1′-biphenyl-4-sulfonate] | > 50 µM |
